Measured values published in patent US7872036B2, “3-triazolylphenyl sulfide derivative and insecticide, miticide and nematicide containing it as an active ingredient” (Kumiai Chemical Industry Co., Ltd., priority 2004, dated 2011).

How the values were obtained:
[1] = system: two-spotted spider mites; assay: Miticidal test on two-spotted spider mites (by dipping); format: in vivo, Tetranychus urticae; design: scale not given here; conditions: dipping of soybean seedlings, active ingredient 500 ppm, 25° C., 13 days
Procedure: (§1) Wettable powders were prepared in accordance with Formulation Example 2 and diluted with water to an active ingredient concentration of 500 ppm. Soybean seedlings which had been inoculated with imago two-spotted spider mites were dipped in the resulting solutions and dried in air. The treated seedlings were placed in a thermostatic chamber at 25° C. for 13 days, and the mite survivors were counted for calculation of the miticidal value by using Equation 2. The test was carried out by one series system.

[2] = system: southern root-knot nematodes; assay: Nemastatic test on southern root-knot nematodes; format: in vivo, Meloidogyne sp.; conditions: diluted solution 20 ppm mixed 1:1 with suspension of second stage larvae, 25° C., 5 days
Procedure: Compounds of the present invention (5 parts) and Tween 20 (tradename for polyoxyethylene sorbitan monolaurate) (1 part) as a spreader were dissolved n N,N-dimethylformamide (94 parts) to prepare 5% emulsifiable concentrates of the compounds of the present invention. Distilled water was added to the emulsifiable concentrates to prepare diluted solutions having a concentration of the compounds of the present invention of 20 ppm. 0.5 ml of the diluted solutions and 0.5 ml of water suspensions containing 100 second stage larvae of southern root-knot nematodes were mixed, and the mixture were placed in a thermostatic chamber at 25° C. for 5 days, and the survivors were counted for calculation of the nemastatic degree by using Equation 3. The test was carried out by two series system.

[3] = system: brown planthoppers; assay: Insecticidal test on brown planthoppers; format: in vivo, Nilaparvata lugens; conditions: active ingredient 500 ppm, germinating rice immersed, 4th-instar larvae, 25° C., 6 days
Procedure: Wettable powders were prepared in accordance with Formulation Example 2 and diluted with water to an active ingredient concentration of 500 ppm. Germinating rice was immersed in the resulting solutions and put in a plastic cup with a capacity of 60 ml. Ten 4th-instar larvae of brown planthoppers were released to the cup, and the cup was covered and placed in a thermostatic chamber at 25° C. for 6 days, and the survivors were counted for calculation of the insecticidal degree by using Equation 1. The test was carried out by one series system.

[4] = system: two-spotted spider mites; assay: Miticidal test on two-spotted spider mites (by soil drenching); format: in vivo, Tetranychus urticae; design: scale not given here; conditions: active ingredient 100 ppm, 5 ml per 100 g soil, 25° C., 13 days
Procedure: as §1, with “100” for “500”, “100 g of the soil in cups with soybean” for “Soybean”, “drenched with 5 ml of” for “dipped in”, “solutions.” for “solutions and dried in air.”, “[…]” for “thermostatic”, “2.” for “2. The test was carried out by one series system.”

Row | Structure (SMILES) | Miticidal value [1] | Nemastatic degree (%) [2] [%] | Insecticidal degree (%) [3] [%] | Miticidal value [4]
1 | Cc1cc(F)c(-n2nc(C(F)(F)F)nc2N)cc1SCC(F)(F)F [Compound 1, [5-(5-amino-3-trifluoromethyl-1,2,4-triazolyl)-4-fluoro-2-methylphenyl]2,2,2-trifluoroethyl sulfide] | 100 | 100 | 90 | 99
2 | Cc1cc(F)c(-n2nc(C(F)(F)F)nc2N)cc1[S+]([O-])CC(F)(F)F (stereo not drawn) [Compound 2, [5-(5-amino-3-trifluoromethyl-1,2,4-triazolyl)-4-fluoro-2-methylphenyl]2,2,2-trifluoroethyl sulfoxide] | 100 | 100 | 100 | 100
3 | Cc1cc(F)c(-n2nc(C(F)(F)F)nc2NC(=O)C(F)(F)F)cc1[S+]([O-])CC(F)(F)F (stereo not drawn) [Compound 6, [5-(5-trifluoroacetylamino-3-trifluoromethyl-1,2,4-triazolyl)-4-fluoro-2-methylphenyl]2,2,2-trifluoroethyl sulfoxide] | 100 | 100 | 100 | 100
4 | CNc1nc(C(F)(F)F)nn1-c1ccc(C)c([S+]([O-])CC(F)(F)F)c1 (stereo not drawn) [Compound 38] | 100 | 100 | 100 | 100
5 | Cc1cc(F)c(-n2nc(C(F)(F)F)nc2N(C)C)cc1SCC(F)(F)F [Compound 43] | 100 | 93 | 100 | 100
6 | CCc1nc(N)n(-c2cc([S+]([O-])CC(F)(F)F)c(C)cc2F)n1 (stereo not drawn) [Compound 50] | 100 | 98 | 99 | 100
7 | C#CCNc1nc(C(F)(F)F)nn1-c1cc([S+]([O-])CC(F)(F)F)c(C)cc1F (stereo not drawn) [Compound 66] | 100 | 94 | 100 | 100
8 | CNc1nc(SC(F)(F)C(F)(F)F)nn1-c1cc([S+]([O-])CC(F)(F)F)c(C)cc1F (stereo not drawn) [Compound 102] | 100 | 98 | 100 | 100
9 | CNc1nc(C(C)(C)C)nn1-c1cc(SCC(F)(F)F)c(C)cc1F [Compound 114] | 100 | 100 | 100 | 100
10 | CNc1nc(C(C)(C)C)nn1-c1cc([S+]([O-])CC(F)(F)F)c(C)cc1F (stereo not drawn) [Compound 115] | 100 | 92 | 100 | 100
11 | Cc1ccc(-n2nc(C(F)(F)F)nc2N)cc1[S+]([O-])CC(F)(F)F (stereo not drawn) [Compound 125] | 100 | 91 | 100 | 99
12 | Nc1nc(C(F)(F)F)nn1-c1ccc(Cl)c([S+]([O-])CC(F)(F)F)c1 (stereo not drawn) [Compound 127] | 100 | 94 | 100 | 100
13 | Cc1cc(F)c(-n2nc(SCC(F)(F)F)nc2N)cc1[S+]([O-])CC(F)(F)F (stereo not drawn) [Compound 131] | 100 | 93 | 90 | 100
14 | Cc1cc(F)c(-n2nc([S+]([O-])CC(F)(F)F)nc2N)cc1[S+]([O-])CC(F)(F)F (stereo not drawn) [Compound 133] | 100 | 98 | 100 | 100
15 | Cc1cc(F)c(-n2nc(C(C)(C)C)nc2N)cc1SCC(F)(F)F [Compound 144] | 100 | 97 | 90 | 100
16 | CNc1nc(SCC(F)(F)F)nn1-c1cc([S+]([O-])CC(F)(F)F)c(C)cc1F (stereo not drawn) [Compound 161] | 100 | 98 | 100 | 100
17 | Cc1cc(F)c(-n2nc(C(F)(F)F)nc2NN)cc1SCC(F)(F)F [Compound 162] | 100 | 100 | 100 | 95
18 | Cc1cc(F)c(-n2nc(C(F)(F)F)nc2N(C)N)cc1[S+]([O-])CC(F)(F)F (stereo not drawn) [Compound 171] | 100 | 100 | 100 | 100
